# Patent US20180185510A1, “ANTIBODY DRUG CONJUGATES OF KINESIN SPINDEL PROTEIN (KSP) INHIBITORS WITH ANTI-B7H3-ANTIBODIES” (BAYER PHARMA AKTIENGESELLSCHAFT, priority 2015, published 2018)
# B1: TPP-3803 (antibody, human IgG1, kappa, V domains shown)
# VH: QVKLQQSGAELVKPGASVKLSCKASGYTFTNYDINWVRQRPEQGLEWIGWIFPGDGSTQYNEKFKGKATLTTDTSSSTAYMQLSRLTSEDSAVYFCARQTTATWFAYWGQGTTVTVSS
# VL: DIELTQSPTTLSVTPGDRVSLSCRASQSISDYLHWYQQKSHESPRLLIKYASQSISGIPSRFSGSGSGSDFTLSINSVEPEDVGVYYCQNGHSFPLTFGAGTKLELKR
# notes: also called anti-B7H3 AK1A
# Tests used:
# [1] = Flux assay for cell permeability using Caco-2 cells; conditions: human, Caco-2
# [2] = tested on: NCI-H292: human mucoepidermoid lung carcinoma cells; experiment: MTT assay, cytotoxicity of metabolites, NCI-H292; format: cell-based; conditions: NCI-H292, 96 h, 96 h incubation
# Experimental: NCI-H292: human mucoepidermoid lung carcinoma cells, ATCC-CRL-1848, standard medium: RPMI 1640 (Biochrom; #FG1215, stab. glutamine)+10% FCS (Biochrom; #S0415).
# (§1) The cells were cultivated according to the standard method using the growth media listed under C-1. The test is carried out by detaching the cells with a solution of Accutase in PBS (Biochrom AG #L2143), pelleting, resuspending in culture medium, counting and sowing into a 96-well culture plate with white bottom (Costar #3610) (NCI H292: 2500 cells/well in a total volume of 100 μl). The cells were then incubated in an incubator at 37° C. and 5% carbon dioxide. After 48 h, the medium was replaced. The metabolites in 10 μl of culture medium in concentrations from 10^−5M to 10^−13M were then pipetted to the cells (in triplicate), and the assay was then incubated in an incubator at 37° C. and 5% carbon dioxide. […] To this end, the MTT reagent was incubated with the cells for 4 h, followed by lysis of the cells overnight by addition of the detergent. The dye formed was detected at 570 nm (Infinite M1000 pro, Tecan). The measured data were used to calculate the IC50 of the growth inhibition using the DRC (dose response curve). The proliferation of cells which were not treated with test substance but were otherwise identically treated was defined as the 100% figure.
# KPL4 = experiment: MTT assay, cytotoxicity of metabolites, KPL4; format: cell-based; conditions: KPL4, 96 h, 96 h incubation
# Experimental: as §1
# [3] = biological target: T1, motor domain of the human kinesin spindle protein KSP/Eg5 (Homo sapiens, UniProt P52732); experiment: Inhibition of the kinesin spindle protein, ATPase activity (malachite green); format: biochemical; conditions: 10 nM KSP/Eg5 motor domain, microtubuli, ATP 500 μM, 2 h RT
# T1 construct: The motor domain of the human kinesin spindle protein KSP/Eg5; purchased tebu-bio/Cytoskeleton Inc 027EG01-XL
# T1 sequence (P52732 18-359 limits assumed): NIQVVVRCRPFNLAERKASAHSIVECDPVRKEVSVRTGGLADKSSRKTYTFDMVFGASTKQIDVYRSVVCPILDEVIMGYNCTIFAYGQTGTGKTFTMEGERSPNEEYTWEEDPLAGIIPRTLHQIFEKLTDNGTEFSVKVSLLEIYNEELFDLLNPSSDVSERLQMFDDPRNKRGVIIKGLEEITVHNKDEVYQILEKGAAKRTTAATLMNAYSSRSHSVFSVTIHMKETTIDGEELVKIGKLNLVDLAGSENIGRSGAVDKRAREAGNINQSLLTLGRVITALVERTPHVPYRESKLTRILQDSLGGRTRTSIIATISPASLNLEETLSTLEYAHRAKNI
# Experimental: The motor domain of the human kinesin spindle protein KSP/Eg5 (tebu-bio/Cytoskeleton Inc, No. 027EG01-XL) was incubated in a concentration of 10 nM with microtubuli (bovine or porcine, tebu-bio/Cytoskeleton Inc) stabilized with 50 μg/ml taxol (Sigma No. T7191-5MG) for 5 min at RT in 15 mM PIPES, pH 6.8 (5 mM MgCl2 and 10 mM DTT, Sigma). […] Incubation was at RT for 2 h. ATPase activity was detected by detecting the inorganic phosphate formed using malachite green (Biomol). […] The positive controls used were monastrol (Sigma, M8515-1 mg) and ispinesib (AdooQ Bioscience A10486). The individual data of the dose-activity curve are eight-fold determinations. The IC50 values are means of two independent experiments.
# [4] = biological target: T2, human B7H3 (RnDSystems, 2318-B3-050/CF) (human, UniProt Q5ZPR3 29-461); experiment: ELISA; antibody captured on anti-human IgG Fc, antigen 37 ng/ml, anti-His HRP / Amplex Red
# T2 construct: Bought antigen, detected with an anti-His HRP antibody, so a His tag is implied
# T2 sequence (looked up): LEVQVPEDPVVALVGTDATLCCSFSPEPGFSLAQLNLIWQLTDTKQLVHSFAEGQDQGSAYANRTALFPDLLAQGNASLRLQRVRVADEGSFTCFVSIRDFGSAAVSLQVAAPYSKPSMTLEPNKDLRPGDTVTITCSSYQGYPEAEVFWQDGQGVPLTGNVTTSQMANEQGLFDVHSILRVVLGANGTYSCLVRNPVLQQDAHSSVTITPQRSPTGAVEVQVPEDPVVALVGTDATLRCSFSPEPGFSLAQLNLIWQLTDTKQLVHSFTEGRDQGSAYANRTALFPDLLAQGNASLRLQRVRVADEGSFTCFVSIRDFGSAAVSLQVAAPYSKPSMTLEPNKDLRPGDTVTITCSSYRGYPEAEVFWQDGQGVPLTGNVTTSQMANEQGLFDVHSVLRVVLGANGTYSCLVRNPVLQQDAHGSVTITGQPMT
# Experimental: TPP5706 was synthesized as described above. Binding of TPP5706 to human B7H3 and to human B7H2 and B7H4 was characterized using ELISAs. […] After washing once with PBS, 0.05% Tween, the plate was blocked with 100% Smart Block (Candor) for one hour at 37° C. The antibody to be tested (e.g. TPP5706 or one of its derivatives) was then attached to the plate (2 μg/ml IgG in PBS, 0.05% Tween, 10% Smart Block; 1 hour, room temperature). […] After washing three times, the plate was incubated with Amplex Red for 30 minutes and then read.
Molecule,IC50 [2],IC50 (KPL4),other results
"CC(C)(C)[C@H](c1cc(-c2cc(F)ccc2F)cn1Cc1ccccc1)N(CC[C@H](N)C(=O)NCCNC(=O)CNC(=O)CC(SC[C@H](N)C(=O)O)C(=O)O)C(=O)CO (mixture of isomers) [Example M26, 4-[(2-{[2-({(2S)-2-Amino-4-[{(1R)-1-[1-benzyl-4-(2,5-difluorophenyl)-1H-pyrrol-2-yl]-2,2-dimethylpropyl}(glycoloyl)amino]butanoyl}amino)ethyl]amino}-2-oxoethyl)amino]-2-{[(2R)-2-amino-2-carboxyethyl]sulphanyl}-4-oxobutanoic acid-trifluoroacetic acid (1:1)]",63.8 nM,,Papp B→A at 2 h [1]: 1.3 ×10⁻⁶ cm/s
"CC(C)(C)[C@H](c1cc(-c2cc(F)ccc2F)cn1Cc1ccccc1)N(CC[C@H](N)C(=O)NCCNC(=O)CNC(=O)CC(SC[C@H](N)C(=O)O)C(=O)O)C(=O)CO (single isomer, unassigned) [Example M14]",,182 nM,
"CC(C)(C)[C@H](c1cc(-c2cc(F)ccc2F)cn1Cc1ccccc1)N(CC[C@H](N)C(=O)NCCNC(=O)CNC(=O)C(CC(=O)O)SC[C@H](N)C(=O)O)C(=O)CO (single isomer, unassigned) [Example M15]",133 nM,169 nM,
"CC(C)(C)C(c1cc(-c2cc(F)ccc2F)cn1Cc1ccccc1)N(CC[C@H](N)C(=O)NCCNC(=O)CN1C(=O)CC(SC[C@H](N)C(=O)O)C1=O)C(=O)CO.O=C(O)C(F)(F)F (stereo partly drawn) [Example M1, S-[1-(2-{[2-({(2S)-2-Amino-4-[{(1R)-1-[1-benzyl-4-(2,5-difluorophenyl)-1H-pyrrol-2-yl]-2,2-dimethylpropyl}(glycoloyl)amino]butanoyl}amino)ethyl]amino}-2-oxoethyl)-2,5-dioxopyrrolidin-3-yl]-L-cysteine/trifluoroacetic acid (1:1)]",500 nM,500 nM,Papp B→A at 2 h [1]: 0.78 ×10⁻⁶ cm/s
"CC(C)(C)[C@H](c1cc(-c2cc(F)ccc2F)cn1Cc1ccccc1)N(CC[C@H](N)C(=O)NCCOCCN1C(=O)CC(SC[C@H](N)C(=O)O)C1=O)C(=O)CO (stereo partly drawn) [Example M4, S-(1-{2-[2-({(2S)-2-Amino-4-[{(1R)-1-[1-benzyl-4-(2,5-difluorophenyl)-1H-pyrrol-2-yl]-2,2-dimethylpropyl}(glycoloyl)amino]butanoyl}amino)ethoxy]ethyl}-2,5-dioxopyrrolidin-3-yl)-L-cysteine/trifluoroacetic acid (1:1)]",,176 nM,
"CC(C)(C)[C@H](c1cc(-c2cc(F)ccc2F)cn1Cc1ccccc1)N(CC[C@H](N)C(=O)NCCNC(=O)CSC[C@H](N)C(=O)O)C(=O)CO [Example M7, S-(2-{[2-({(2S)-2-Amino-4-[{(1R)-1-[1-benzyl-4-(2,5-difluorophenyl)-1H-pyrrol-2-yl]-2,2-dimethylpropyl}(glycoloyl)amino]butanoyl}amino)ethyl]amino}-2-oxoethyl)-L-cysteine/trifluoroacetic acid (1:1)]",,92.5 nM,
"CC(C)(C)[C@H](c1cc(-c2cc(F)ccc2F)cn1Cc1ccccc1)N(CCCN)C(=O)CO [Example M9, N-(3-Aminopropyl)-N-{(1R)-1-[1-benzyl-4-(2,5-difluorophenyl)-1H-pyrrol-2-yl]-2,2-dimethylpropyl}-2-hydroxyacetamide]",,,IC50 [3]: 1.07 nM
"CC(C)(C)[C@H](c1cc(-c2cc(F)ccc2F)cn1Cc1ccccc1)N(CC[C@H](N)C(=O)NCCNC(=O)CNC(=O)CC(SC[C@H](N)C(=O)O)C(=O)O)C(=O)CO (stereo partly drawn) [Example M13, 4-[(2-{[2-({(2S)-2-Amino-4-[{(1R)-1-[1-benzyl-4-(2,5-difluorophenyl)-1H-pyrrol-2-yl]-2,2-dimethylpropyl}(glycoloyl)amino]butanoyl}amino)ethyl]amino}-2-oxoethyl)amino]-2-{[(2R)-2-amino-2-carboxyethyl]sulphanyl}-4-oxobutanoic acid/trifluoroacetic acid (1:1)]",,169 nM,
"CC(C)(C)[C@H](c1cc(-c2cc(F)ccc2F)cn1Cc1ccccc1)N(CCCN)C(=O)CSC[C@H](NC(=O)CCOCCOCCOCCOCCNC(=O)CNC(=O)C(CC(=O)O)SC[C@H](N)C(=O)O)C(=O)O (stereo partly drawn) [Example M21, (2R,24S,27R)-27-Amino-2-[({2-[(3-aminopropyl) {(1R)-1-[1-benzyl-4-(2,5-difluorophenyl)-1H-pyrrol-2-yl]-2,2-dimethylpropyl}amino]-2-oxoethyl}sulphanyl)methyl]-24-(carboxymethyl)-4,20,23-trioxo-7,10,13,16-tetraoxa-25-thia-3,19,22-triazaoctacosane-1,28-dioic acid/trifluoroacetic acid (1:2)]",,,IC50 [3]: 2.31 nM
"CC(C)(C)[C@H](c1cc(-c2cc(F)ccc2F)cn1Cc1ccccc1)N(CC[C@H](N)C(=O)NCCC(=O)N[C@@H](CCC(=O)O)C(=O)O)C(=O)CO [Example M23, N-{(2S)-2-Amino-4-[{(1R)-1-[1-benzyl-4-(2,5-difluorophenyl)-1H-pyrrol-2-yl]-2,2-dimethylpropyl}(glycoloyl)amino]butanoyl}-beta-alanyl-L-glutamic acid-trifluoroacetic acid (1:1)]",500 nM,500 nM,
"CC(C)(C)[C@H](c1cc(-c2cc(F)ccc2F)cn1Cc1ccccc1)N(CC[C@H](N)C(=O)NCCC(=O)N[C@H](CCC(=O)O)C(=O)O)C(=O)CO [Example M24, N-{(2S)-2-Amino-4-[{(1R)-1-[1-benzyl-4-(2,5-difluorophenyl)-1H-pyrrol-2-yl]-2,2-dimethylpropyl}(glycoloyl)amino]butanoyl}-beta-alanyl-D-glutamic acid-trifluoroacetic acid (1:1)]",167 nM,500 nM,
"CC(C)(C)[C@H](c1cc(-c2cc(F)ccc2F)cn1Cc1ccccc1)N(CC[C@H](N)C(=O)NCCNC(=O)CNC(=O)C(CC(=O)O)SC[C@H](N)C(=O)O)C(=O)CO (stereo partly drawn) [Example M27, 4-[(2-{[2-({(2S)-2-Amino-4-[{(1R)-1-[1-benzyl-4-(2,5-difluorophenyl)-1H-pyrrol-2-yl]-2,2-dimethylpropyl}(glycoloyl)amino]butanoyl}amino)ethyl]amino}-2-oxoethyl)amino]-3-{[(2R)-2-amino-2-carboxyethyl]sulphanyl}-4-oxobutanoic acid-trifluoroacetic acid (1:1)]",276 nM,,
B1,,,Quotient signal (B7)/signal (buffer) [4]: 51
